# Results: patent US11780826B2 (Amgen Inc., priority 2017, dated 2023)
# Tested on: Bovine cardiac myofibrils
# Assay: In vitro model of dose-dependent myofibril ATPase modulation (AC1.4, pyruvate kinase/lactate dehydrogenase-coupled ATPase assay at pCa25)
# Assay type: biochemical
# Settings: concentration at which ATPase activity was 1.4-fold higher than the bottom of the dose curve, mean of a minimum of two independent tests
# Procedure, shortened: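 Absorbance at 340 nm tracked ATP hydrolysis through pyruvate kinase/lactate dehydrogenase coupling (0.5 mM NADH, 1.5 mM PEP). Myofibrils from detergent-homogenized bovine heart, 1 mM ATP, pH 6.80, EGTA/CaCl2 buffering. Dose-response curves fitted with a four-parameter Hill equation.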
row,SMILES,AC1.4 [µM]
1,"N#CC1CN(S(=O)(=O)N2CCC[C@H](C(=O)N3CCC[C@@H]3C(=O)NCC3CCC(C(F)(F)F)CC3)C2)C1 (stereo partly drawn) [Example 590, 1-(((3S)-1-((3-cyano-1-azetidinyl)sulfonyl)-3-piperidinyl)carbonyl)-N-((cis-4-(trifluoromethyl)cyclohexyl)methyl)-D-prolinamide,1-(((3S)-1-((3-cyano-1-azetidinyl)sulfonyl)-3-piperidinyl)carbonyl)-N-((4-(trifluoromethyl)cyclohexyl)methyl)-D-prolinamide]",3.4675
2,"COc1ccc(CNC(=O)[C@H]2CCCN2C(=O)[C@H]2CCCN(S(=O)(=O)N3CC(C#N)C3)C2)cc1Cl [Example 591, N-(3-chloro-4-methoxybenzyl)-1-(((3S)-1-((3-cyano-1-azetidinyl)sulfonyl)-3-piperidinyl)carbonyl)-D-prolinamide]",3.476
3,"Cc1cc(C(C)NC(=O)[C@H]2CCCN2C(=O)[C@H]2CCCN(S(=O)(=O)N3CC(C#N)C3)C2)ccc1F (stereo partly drawn) [Example 592, (2R)-1-((S)-1-((3-cyanoazetidin-1-yl)sulfonyl)piperidine-3-carbonyl)-N-(1-(4-fluoro-3-methylphenyl)ethyl)pyrrolidine-2-carboxamide]",3.477
4,"CC(NC(=O)[C@H]1CCCN1C(=O)[C@H]1CCCN(S(=O)(=O)N2CC(C#N)C2)C1)c1ccc(OC(F)F)cc1 (stereo partly drawn) [Example 594, (2R)-1-((S)-1-((3-cyanoazetidin-1-yl)sulfonyl)piperidine-3-carbonyl)-N-(1-(4-(difluoromethoxy)phenyl)ethyl)pyrrolidine-2-carboxamide]",3.505
5,"C[C@@H](NC(=O)[C@H]1CCCN1C(=O)c1cccc(S(=O)(=O)N2CC3(CC3)C2)c1)c1ccc(Cl)cc1 [Example 595, 1-((3-(5-azaspiro[2.3]hex-5-ylsulfonyl)phenyl)carbonyl)-N-((1R)-1-(4-chlorophenyl)ethyl)-D-prolinamide]",3.5165
6,"C[C@@H](NC(=O)[C@H]1CCCN1C(=O)[C@H]1CCCN(S(=O)(=O)N2CC(C)(O)C2)C1)c1ccc(C(F)(F)F)cc1F [Example 597, N-((1R)-1-(2-fluoro-4-(trifluoromethyl)phenyl)ethyl)-1-(((3S)-1-((3-hydroxy-3-methyl-1-azetidinyl)sulfonyl)-3-piperidinyl)carbonyl)-D-prolinamide]",3.5295
7,"CS(=O)(=O)c1cncc(C(=O)N2[C@@H](C(=O)N[C@@H](c3cc(F)c(C(F)(F)F)cc3F)C3CC3)C[C@@H]3C[C@@H]32)c1 [Example 598, (1S,3R,5S)-N-((R)-cyclopropyl(2,5-difluoro-4-(trifluoromethyl)phenyl)methyl)-2-((5-(methylsulfonyl)-3-pyridinyl)carbonyl)-2-azabicyclo[3.1.0]hexane-3-carboxamide]",3.0525
8,"Cc1cccc(CNC(=O)[C@H]2CCCN2C(=O)[C@H]2CCCN(S(=O)(=O)N3CC(C#N)C3)C2)c1F [Example 606, 1-(((3S)-1-((3-cyano-1-azetidinyl)sulfonyl)-3-piperidinyl)carbonyl)-N-(2-fluoro-3-methylbenzyl)-D-prolinamide]",3.696
9,"Cc1cccc(F)c1CNC(=O)[C@H]1CCCN1C(=O)[C@H]1CCCN(S(=O)(=O)N2CC(C#N)C2)C1 [Example 607, 1-(((3S)-1-((3-cyano-1-azetidinyl)sulfonyl)-3-piperidinyl)carbonyl)-N-(2-fluoro-6-methylbenzyl)-D-prolinamide]",3.714
10,"O=C(NCc1ccc(C(F)(F)F)cc1F)[C@H]1CCCN1C(=O)[C@H]1CCCN(S(=O)(=O)N2CC(O)C2)C1 [Example 610, N-(2-fluoro-4-(trifluoromethyl)benzyl)-1-(((3S)-1-((3-hydroxy-1-azetidinyl)sulfonyl)-3-piperidinyl)carbonyl)-D-prolinamide]",3.7735
11,"N#CC1CN(S(=O)(=O)N2CCC[C@H](C(=O)N3CCC[C@@H]3C(=O)NCc3ccc(Cl)nc3)C2)C1 [Example 613, N-((6-chloro-3-pyridinyl)methyl)-1-(((3S)-1-((3-cyano-1-azetidinyl)sulfonyl)-3-piperidinyl)carbonyl)-D-prolinamide]",3.8643
12,"COc1ccc(CNC(=O)[C@H]2CCCN2C(=O)[C@H]2CCCN(S(=O)(=O)N3CC(C#N)C3)C2)c(C)c1 [Example 614, 1-(((3S)-1-((3-cyano-1-azetidinyl)sulfonyl)-3-piperidinyl)carbonyl)-N-(4-methoxy-2-methylbenzyl)-D-prolinamide]",3.8655

# The remaining lines, values ahead:
row,AC1.4 [µM],SMILES
1,3.49,"O=C(N[C@@H](c1cc(F)c(C(F)(F)F)cc1F)C1CC1)[C@H]1C[C@H]2C[C@H]2N1C(=O)c1cc(C2CC2)ccn1 [Example 593, (1R,3R,5R)-N-((R)-cyclopropyl(2,5-difluoro-4-(trifluoromethyl)phenyl)methyl)-2-((4-cyclopropyl-2-pyridinyl)carbonyl)-2-azabicyclo[3.1.0]hexane-3-carboxamide]"
2,2.9335,"CS(=O)(=O)c1cccc(C(=O)N2[C@@H](C(=O)N[C@@H](c3ccc(C(F)(F)F)cc3)C3CC3)C[C@H]3C[C@H]32)c1 [Example 596, (1R,3R,5R)-N-((R)-cyclopropyl(4-(trifluoromethyl)phenyl)methyl)-2-(3-(methylsulfonyl)benzoyl)-2-azabicyclo[3.1.0]hexane-3-carboxamide]"
3,3.5615,"O=C(N[C@@H](c1ccc(C(F)(F)F)cc1F)C1CC1)[C@H]1C[C@H](F)CN1C(=O)c1cccc(C2(F)COC2)c1 [Example 599, (4S)-N-((R)-cyclopropyl(2-fluoro-4-(trifluoromethyl)phenyl)methyl)-4-fluoro-1-(3-(3-fluoro-3-oxetanyl)benzoyl)-D-prolinamide]"
4,3.6113,"Cc1ccnc(C(=O)N2[C@@H](C(=O)N[C@@H](c3cc(F)c(Cl)cc3F)C3COC3)C[C@H]3C[C@H]32)c1 [Example 600, (1R,3R,5R)-N-((R)-(4-chloro-2,5-difluorophenyl)(3-oxetanyl)methyl)-2-((4-methyl-2-pyridinyl)carbonyl)-2-azabicyclo[3.1.0]hexane-3-carboxamide]"
5,3.276,"CC(O)C(NC(=O)[C@H]1C[C@H]2C[C@H]2N1C(=O)c1cccc(S(C)(=O)=O)c1)c1ccc(C(F)(F)F)cc1F (stereo partly drawn) [Example 601, (1R,3R,5R)-N-(1-(2-fluoro-4-(trifluoromethyl)phenyl)-2-hydroxypropyl)-2-(3-(methylsulfonyl)benzoyl)-2-azabicyclo[3.1.0]hexane-3-carboxamide]"
6,3.4595,"COc1ccc(S(C)(=O)=O)cc1C(=O)N1CCC[C@@H]1C(=O)N[C@@H](c1ccc(C(F)(F)F)cc1F)C1CC1 [Example 602, N-((R)-cyclopropyl(2-fluoro-4-(trifluoromethyl)phenyl)methyl)-1-(2-methoxy-5-(methylsulfonyl)benzoyl)-D-prolinamide]"
7,3.6775,"Cc1cc(C(=O)N2[C@@H](C(=O)N[C@@H](c3cc(F)c(Cl)cc3F)C3COC3)C[C@H]3C[C@H]32)cc(C)n1 [Example 603, (1R,3R,5R)-N-((R)-(4-chloro-2,5-difluorophenyl)(3-oxetanyl)methyl)-2-((2,6-dimethyl-4-pyridinyl)carbonyl)-2-azabicyclo[3.1.0]hexane-3-carboxamide]"
8,3.679,"N#CC1(c2cccc(C(=O)N3CCC[C@@H]3C(=O)N[C@@H](c3ccc(C(F)(F)F)cc3F)C3CC3)c2)CC1 [Example 604, 1-(3-(l-cyanocyclopropyl)benzoyl)-N-((R)-cyclopropyl(2-fluoro-4-(trifluoromethyl)phenyl)methyl)-D-prolinamide]"
9,3.685,"O=C(N[C@@H](c1ccc(C(F)(F)F)cc1F)C1CC1)[C@H]1C[C@H]2C[C@H]2N1C(=O)c1ccnc(C(F)F)c1 [Example 605, (1R,3R,5R)-N-((R)-cyclopropyl(2-fluoro-4-(trifluoromethyl)phenyl)methyl)-2-((2-(difluoromethyl)-4-pyridinyl)carbonyl)-2-azabicyclo[3.1.0]hexane-3-carboxamide]"
10,3.7405,"O=C(c1ccccc1)c1cccc(C(=O)N2[C@@H](C(=O)N[C@@H](c3cc(F)c(Cl)cc3F)C3CC3)C[C@H]3C[C@H]32)c1 [Example 608, (1R,3R,5R)-2-(3-benzoylbenzoyl)-N-((R)-(4-chloro-2,5-difluorophenyl)(cyclopropyl)methyl)-2-azabicyclo[3.1.0]hexane-3-carboxamide]"
11,3.7443,"CS(=O)(=O)c1cccc(C(=O)N2CC3(CCC3)C2C(=O)N[C@@H](c2ccc(C(F)(F)F)cc2F)C2CC2)c1 (stereo partly drawn) [Example 609, N-((R)-cyclopropyl(2-fluoro-4-(trifluoromethyl)phenyl)methyl)-2-(3-(methylsulfonyl)benzoyl)-2-azaspiro[3.3]heptane-1-carboxamide]"
12,3.788,"O=C(N[C@@H](c1ccc(C(F)(F)F)cc1F)C1COC1)[C@H]1C[C@H]2C[C@H]2N1C(=O)c1cncc(C2CC2)c1 [Example 611, (1R,3R,5R)-2-((5-cyclopropyl-3-pyridinyl)carbonyl)-N-((R)-(2-fluoro-4-(trifluoromethyl)phenyl)(3-oxetanyl)methyl)-2-azabicyclo[3.1.0]hexane-3-carboxamide]"
13,3.527,"COc1ccc(S(C)(=O)=O)cc1C(=O)N1[C@@H](C(=O)N[C@@H](c2ccc(C(F)(F)F)cc2F)C2CC2)C[C@H]2C[C@H]21 [Example 612, (1R,3R,5R)-N-((R)-cyclopropyl(2-fluoro-4-(trifluoromethyl)phenyl)methyl)-2-(2-methoxy-5-(methylsulfonyl)benzoyl)-2-azabicyclo[3.1.0]hexane-3-carboxamide]"
14,3.8905,"O=C(N[C@@H](c1cc(F)c(C(F)(F)F)cc1F)C1CC1)[C@H]1C[C@H]2C[C@H]2N1C(=O)c1cccc(C(F)(F)F)n1 [Example 615, (1R,3R,5R)-N-((R)-cyclopropyl(2,5-difluoro-4-(trifluoromethyl)phenyl)methyl)-2-((6-(trifluoromethyl)-2-pyridinyl)carbonyl)-2-azabicyclo[3.1.0]hexane-3-carboxamide]"
